Experimental findings from patent publication US20070111318A1 (priority 2003, published 2007) are described below.

For this data set, the system named is ddY mice. The following applies: mouse, in vivo, ip.

`C=C(C[C@@H]1C[C@H](O)[C@]2(C)O[C@@H]3C[C@@H]4O[C@@H]5C[C@]6(C)O[C@]7(C)CC[C@@H]8O[C@@H]9C[C@]%10(C)O[C@@H]%11C(C)=CC(=O)O[C@H]%11C[C@H]%10O[C@H]9C[C@@H](C)[C@H]8O[C@H]7C[C@H]6O[C@@]5(C)C/C=C\[C@H]4O[C@H]3C[C@H]2O1)C(=O)O` [BTX-B5, brevetoxin B5]: the symptoms after injection result is “symptoms of neurotoxicity extremely similar to those caused by other brevetoxins”.
